Data on one compound can be found in patent US20240002343A1, “COMPOUNDS HAVING INHIBITORY EFFECT ON MITOCHONDRIAL HYPERFISSION” (KYUSHU UNIVERSITY, NATIONAL UNIVERSITY CORPORATION, priority 2020, published 2024).

Test [1] concerns calcium channel. In words: Calcium antagonism (KCl-induced calcium ion influx, Fura 2-AM). The test is classed as cell-based, mouse. As to conditions: Neuro-2a cells; 0, 1, 10, 100 and 1,000 nM, 30 minutes; potassium chloride 60 mM. As for the experimental part:
The compounds prepared in Examples were evaluated for calcium channel blocking activity. Specifically, at first, Neuro-2a cells, mouse-derived neuroblastoma cell line, were cultured in a serum-free medium, and Fura 2-AM (Dojindo Laboratories) that is a calcium ion probe, was added to the medium so that it was taken up by the cells.
Subsequently, after replacing the medium with HEPES buffer (pH 7.4), each compound was each added at final concentrations of 0, 1, 10, 100 and 1,000 nM and the mixtures were incubated for 30 minutes.
Then, depolarization stimulation was applied with potassium chloride (final concentration 60 mM), and the influx of calcium ions into the cells was measured by fluorescence microscopy.
FIGS. 4(a) and (b) are graphs that illustrate the results of measurement of increase in intracellular calcium ion concentration induced by potassium chloride stimulation. Δratio on the vertical axis is expressed by formula (F1) below and represents a value that reflects the intracellular calcium ion concentration.
A ratio=(fluorescence intensity at fluorescence wavelength of 510 nm against an excitation wavelength of 340 nm)/(fluorescence intensity at fluorescence wavelength of 510 nm against an excitation wavelength of 380 nm) Formula (F1)

Test [2] deals with Neonatal rat myocardial cells (NRCM). Put plainly: Cytoprotective effect against cytotoxicity induced by MeHg and hypotonic stimulation (LDH release assay). Conditions: 1 μM pretreatment 1 hour; 50 nM MeHg, 50% hypotonic solution, 2 days; compared with cilnidipine. The test is classed as cell-based. As for the experimental part:
Neonatal rat myocardial cells (NRCM) were seeded at 2.0×10^5 cells/ml in Matrigel-coated 96-well plates. The NRCMs were pretreated by incubating for 1 hour at 37° C., 5% CO2 with 1 μM of each compound 16c and cilnidipine as a positive control, 1 hour before hypotonic stimulation. To provide hypotonic stimulation, the NRCMs were incubated in isotonic solutions (100% DMEM) or 50% hypotonic solutions (50% DMEM and 50% water) in the presence or absence of 50 nM MeHg that a non-neurotoxic concentration, at 37° C. and 5% CO2 for 2 days. Two days later, cytotoxicity was measured by an LDH release assay using a cytotoxic LDH assay kit (Dojindo).
(LDH in the medium is a marker of cell lysis.)

The test system of test [3] is cardiomyocytes derived from neonatal rats. Put plainly: Inhibitory effect on mitochondrial hyperfission by hypoxic stimulation. The test is classed as cell-based, rat. Conditions: 0.3 μM, 1 hour preincubation, 18 hours hypoxic environment; compared with cilnidipine positive control. The protocol:
A system for evaluating quantitatively the degree of mitochondrial division in cells was constructed. Specifically, cardiomyocytes derived from neonatal rats were cultured under either normoxia (20%) or hypoxia (1%) for 16 hours. Subsequently, the cells were stained with a fluorescent dye (MitoTracker Green FM, Thermo Fisher Scientific) that selectively stains mitochondria. Then, the mitochondria were observed under a fluorescence microscope, and the mitochondrial morphology was quantitatively measured by image analysis.
FIGS. 2(a) and (b) are each a micrograph and an image explaining a method for quantitatively measuring mitochondrial morphology by image analysis. FIG. 2(a) is a representative fluorescence micrograph showing the general morphology of mitochondria. FIG. 2(b) is an image obtained by filtering the photograph in FIG. 2(a) and extracting the shape of the mitochondria. Image analysis was performed based on the image in FIG. 2(b) to quantify the lengths of mitochondrial fragments. For the quantification, in order to classify the mitochondria into vesicle-shaped, intermediate-shaped and tube-shaped, <3.5 μm is set for vesicle-shaped, 3.6 μm<length<4.2 μm is set for intermediate-shaped, and >4.2 μm is set for tube-shaped, respectively, as thresholds.
The system for evaluation constructed in Test Example 1 was used to evaluate the mitochondrial hyperfission inhibitory effects of the compounds prepared in Examples.
Specifically, at first, each compound was added to the culture medium of cardiomyocytes derived from neonatal rats at a final concentration of 0.3 μM, and the mixture was incubated for 1 hour.
Then, each cells were cultured for an additional 18 hours in a hypoxic environment. Subsequently, mitochondria were stained with MitoTracker Green FM (Thermo Fisher Scientific) or anti-pyruvate dehydrogenase antibody (Abcam) and observed under a fluorescence microscope to quantitatively measure the morphology of mitochondria. For comparison, a group involving cilnidipine as a positive control and a group involving dimethyl sulfoxide (DMSO) as a negative control were also prepared.

Each structure is given as a SMILES string.

`COCCOC(=O)C1=C(C)NC(C)=C(C(=O)Nc2cccc(C(=O)OC(C)(C)C)c2)C1c1ccccc1` (stereo not drawn) [Compound 16c, 2-Methoxyethyl 5-((3-(tert-butoxycarbonyl)phenyl)carbamoyl)-2,6-dimethyl-4-phenyl-1,4-dihydropyridine-3-carboxylate]: the “Ca2+ antagonism (increase in intracellular calcium ion concentration induced by potassium chloride stimulation)” value in test [1] is “no Ca2+ antagonism”. In test [2], the “cytoprotective effect against MeHg and hypotonic stimulation (LDH release)” value was “cytoprotective effects against MeHg and hypotonic stimulation similar to those of cilnidipine”. Further, the “mitochondrial hyperfission inhibitory effect (percentage of cells with vesicle-shaped mitochondria)” value in test [3] is recorded as “the same as or more effect of cilnidipine”.
